These results are taken from patent US20160160264A1, “DIAGNOSTIC IN VITRO METHOD” (UNIVERSITÄT ZU KÖLN, priority 2013, published 2016).

In this test the target is T1, recombinantly expressed and purified TPMT (Homo sapiens, UniProt P51580).
T1 construct: made in house
T1 sequence (P51580 1-245): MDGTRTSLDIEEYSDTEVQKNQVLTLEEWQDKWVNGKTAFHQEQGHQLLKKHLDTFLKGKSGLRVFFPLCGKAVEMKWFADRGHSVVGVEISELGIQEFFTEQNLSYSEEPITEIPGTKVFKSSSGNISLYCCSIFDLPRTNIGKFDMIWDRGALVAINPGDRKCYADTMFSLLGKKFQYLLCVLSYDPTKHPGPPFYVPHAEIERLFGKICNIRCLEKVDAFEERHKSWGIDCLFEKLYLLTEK
Put plainly: Steady state kinetics with purified TPMT (substrate methylation, HPLC analysis). The following applies: compound as substrate of 3 ng/μL purified TPMT; Moco: urothione synthesis in presence of alkaline phosphatase; 6-mercaptopurine: 6-methylmercaptopurine synthesis. The test is classed as biochemical.

Procedure: (A) Kinetics of the urothione synthesis by TPMT in the presence of alkaline phosphatase. (B) Kinetics of the 6-methylmercaptopurine synthesis by TPMT. (C) Kinetic parameters of the kinetics shown in A and B.
The in vitro synthesis of urothione in kidney protein extracts is dependent on S-adenosylmethionine and Moco. […] Quantities used: 1.7 μg/μl kidney extract, 5 μM Moco, 500 μM SAM, 250 μM DTT in 0.1 M Tris/HCl pH7.5. The reaction was incubated for 4 h at 37° C. and then heat-denatured for 1 h at 60° for stopping and purified by means of QAE-Sepharose. The eluate was dried up and taken up in the HPLC solvent. HPLC analysis took place on a C4 Reprosil® 100 HPLC column, 150×2 mm, 5 μm particle size (Dr. Maisch GmbH) with 20 mM acetic acid and 15% methanol by isocratic elution. […] The increase of the peak at 24 min elution time indicates the formation of urothione. The increase of the peak at 31 min elution time indicates the formation of jukathione. Quantities used: 20 ng/μl TPMT, 2-16 μM Moco, 500 μM SAM, 250 μM DTT in 0.1 M Tris/HCl pH7.5. The reaction was incubated for 1 h at 37° C. and then heat-denatured for 1 h at 60° for stopping. The eluate was dried up and taken up in the HPLC solvent. HPLC analysis took place on a YMC C18 Hydrosphere@ column, 250×4 mm, 5 μm particle size with 20 mM formic acid by elution in a methanol gradient (0-25% 20 min, 1 mL/min). […] The in vitro transformation of Moco by means of liver extracts into urothione in the presence and absence of the TPMT inhibitor 3,4,5-triiodo benzoic acid is shown in FIG. 4. […] The in vitro transformation of Moco by purified TPMT into jukathione in the presence and absence of the TPMT inhibitor 3,4,5-triiodo benzoic acid is shown in FIG. 5. An HPLC chromatogram is shown of the analysis of jukathione after the incubation of purified 1 ng/μL TPMT with 500 μM SAM, 250 μM DTT and 10 μM Moco in the presence and absence of 2.5 μM 3,4,5-triiodo benzoic acid (inhibitor). […] What is depicted is the in vitro synthesis of urothione in protein extracts from RBCs from individuals with a normal TPMT activity (wild type) and persons with heterozygous mutations in the TPMT gene locus (heterozygous), and one person with a homozygous mutation (homozygous) in the TPMT gene locus. […] What is shown is the determination of the urothione content in individuals with a normal TPMT activity (wild type) and persons with heterozygous mutations in the TPMT gene locus (heterozygous), and two persons with homozygous mutations (homozygous) in the TPMT gene locus.
Urothione detection: 10 μM Moco (isolated from heat-denaturated human sulfite oxidase) are incubated in 50 mM Tris/HCl, pH 7.2, 1 mM SAM, 250 μM dithiothreitol and 1.7 μg/μL liver protein extract or 3.4 μg/μL RBCs for 4 h at 37° C. […]

On to `Nc1nc2c(c(=O)[nH]1)NC1C3=C([S][Mo](=[O])(=[O])([O-])[S]3)C(COP(=O)([O-])O)OC1N2` (stereo not shown) [Moco], for which the Michaelis constant (KM) stood at 2 µM and the turnover number (kcat) worked out at 0.129 s⁻¹.

Regarding `Sc1ncnc2nc[nH]c12` [6-mercaptopurine], the KM was found to be 69 µM and the kcat was found to be 0.047 s⁻¹.
